Measured values published in US9193884B2, “Ink composition” (Hewlett-Packard Development Company, L.P., priority 2011, dated 2015).

Legend:
[1] = solubility of lithium fatty acid salts; type: physicochemical
[2] = cited from earlier work
[3] = limiting area and limiting radius of fatty acids; type: physicochemical

Row | Limiting radius [3] [Å] | Structure (SMILES) | solubility [1] | pKa [2]
1 | – | CCCCCCCCCCCC(=O)[O-].[Li+] [dodecanoate, lithium dodecanoate] | higher solubility than that of oleic acid | –
2 | 3.24 | CCCCCCCC/C=C/CCCCCCCC(=O)O [Elaidic, elaidic acid] | – | 9.95
3 | 3.61 | CCCCCCCC/C=C\CCCCCCCC(=O)O [Oleic, oleic acid] | – | 9.85
4 | 3.91 | CCCCC/C=C\C/C=C\CCCCCCCC(=O)O [Linoleic, linoleic acid] | – | –
5 | 2.52 | CCCCCCCCCCCCCCCCCC(=O)O [Stearic, stearic acid] | – | –
